From PubChem BioAssay AID248 (DTP/NCI, 2004)
“And” between values parts separate entries of the source, which are not always exact repeats. Identical values can stand only once. Toxic doses and inconclusive results are not listed. No stated cut-off is given here; in the data, active means T/C of 150% or more; inactive means T/C below 125%.

Tested on: L1210 leukemia ip in BDF1 mice, survival T/C
Experiment: NCI In Vivo Anticancer Drug Screen. Data for tumor model L1210 Leukemia (intraperitoneal) in B6D2F1 (BDF1) mice
Conditions: endpoint: mean survival time, higher = longer survival
Outline: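 Tumor was transplanted into mice, which were then dosed with test compound or vehicle alone. Survival was recorded for each group, and the treated figure was expressed relative to the control figure.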

[1] = dose: 100.0 mg/kg/injection, schedule: Q04DX002 (ip), vehicle: saline with Tween-80
[2] = dose: 200.0 mg/kg/injection, schedule: Q04DX002 (ip), vehicle: saline with Tween-80
[3] = dose: 200.0 mg/kg/injection, schedule: Q04DX002 (ip), vehicle: saline
[4] = dose: 400.0 mg/kg/injection, schedule: Q04DX002 (ip), vehicle: saline with Tween-80
[5] = dose: 100.0 mg/kg/injection, schedule: Q04DX003 (ip), vehicle: saline with Tween-80
[6] = dose: 200.0 mg/kg/injection, schedule: Q04DX003 (ip), vehicle: saline with Tween-80
[7] = dose: 400.0 mg/kg/injection, schedule: Q04DX003 (ip), vehicle: saline with Tween-80
[8] = dose: 100.0 mg/kg/injection, schedule: Q04DX003 (ip), vehicle: Klucel (hydroxypropylcellulose) (HPC)
[9] = dose: 200.0 mg/kg/injection, schedule: Q04DX003 (ip), vehicle: Klucel (hydroxypropylcellulose) (HPC)
[10] = dose: 400.0 mg/kg/injection, schedule: Q04DX003 (ip), vehicle: Klucel (hydroxypropylcellulose) (HPC)
[11] = dose: 100.0 mg/kg/injection, schedule: Q01DX001 (ip), vehicle: carboxymethylcellulose (CMC)
[12] = dose: 200.0 mg/kg/injection, schedule: Q01DX001 (ip), vehicle: carboxymethylcellulose (CMC)
[13] = dose: 400.0 mg/kg/injection, schedule: Q01DX001 (ip), vehicle: carboxymethylcellulose (CMC)
[14] = dose: 100.0 mg/kg/injection, schedule: Q01DX001 (ip), vehicle: Klucel (hydroxypropylcellulose) (HPC)
[15] = dose: 100.0 mg/kg/injection, schedule: Q01DX009 (ip), vehicle: Klucel (hydroxypropylcellulose) (HPC)
[16] = dose: 200.0 mg/kg/injection, schedule: Q01DX009 (ip), vehicle: Klucel (hydroxypropylcellulose) (HPC)
[17] = dose: 400.0 mg/kg/injection, schedule: Q01DX009 (ip), vehicle: Klucel (hydroxypropylcellulose) (HPC)

Measured: T/C

NC(=O)Cc1ccc(O)cc1
inactive: dose: 12.5 mg/kg/injection, schedule: Q04DX002 (ip), vehicle: saline with Tween-80 98 % of control | dose: 25.0 mg/kg/injection, schedule: Q04DX002 (ip), vehicle: saline with Tween-80 107 % of control | dose: 50.0 mg/kg/injection, schedule: Q04DX002 (ip), vehicle: saline with Tween-80 93 % of control and 105 % of control | dose: 50.0 mg/kg/injection, schedule: Q04DX002 (ip), vehicle: saline 113 % of control | [1] 98 % of control and 101 % of control | [2] 96 % of control and 98 % of control | [3] 113 % of control | [4] 101 % of control

C1CCC(CCCCC2CCC(CCCCC3CCCCC3)CC2)CC1 (centres undefined)
inactive: [5] 91 % of control | [6] 93 % of control | [7] 96 % of control

ClC(Cl)=C1SCCCS1
inactive: dose: 100.0 mg/kg/injection, schedule: Q01DX001 (ip), vehicle: saline with Tween-80 96 % of control | dose: 200.0 mg/kg/injection, schedule: Q01DX001 (ip), vehicle: saline with Tween-80 108 % of control

Cc1cc(C(C)(C)C)c(Oc2ccc([N+](=O)[O-])cc2S(=O)(=O)O)c(C(C)(C)C)c1
inactive: dose: 100.0 mg/kg/injection, schedule: Q01DX009 (ip), vehicle: saline with Tween-80 86 % of control | dose: 400.0 mg/kg/injection, schedule: Q01DX009 (ip), vehicle: saline with Tween-80 88 % of control

Nc1cccnc1Cl
inactive: dose: 100.0 mg/kg/injection, schedule: Q01DX009 (ip), vehicle: alcohol 100 % of control | dose: 100.0 mg/kg/injection, schedule: Q04DX003 (ip), vehicle: other 92 % of control | dose: 200.0 mg/kg/injection, schedule: Q01DX009 (ip), vehicle: alcohol 96 % of control | dose: 200.0 mg/kg/injection, schedule: Q04DX003 (ip), vehicle: other 90 % of control | dose: 400.0 mg/kg/injection, schedule: Q01DX009 (ip), vehicle: alcohol 96 % of control | dose: 400.0 mg/kg/injection, schedule: Q04DX003 (ip), vehicle: other 93 % of control

COc1ccc(C[n+]2cccc(CNC(=O)COc3ccc(Cl)c(Cl)c3)c2)cc1
inactive: dose: 25.0 mg/kg/injection, schedule: Q04DX003 (ip), vehicle: Klucel (hydroxypropylcellulose) (HPC) 98 % of control | dose: 50.0 mg/kg/injection, schedule: Q04DX003 (ip), vehicle: Klucel (hydroxypropylcellulose) (HPC) 106 % of control | [8] 107 % of control and 108 % of control

O=C(O)c1cc(N=Nc2ccccc2C(=O)O)ccc1O
inactive: [8] 92 % of control | [9] 94 % of control | [10] 112 % of control

Cc1c(Cl)cccc1-n1c(C)nc2ccccc2c1=O
inactive: dose: 50.0 mg/kg/injection, schedule: Q01DX001 (ip), vehicle: carboxymethylcellulose (CMC) 93 % of control | [11] 98 % of control | [12] 93 % of control | [13] 102 % of control

COc1ccc(Cl)cc1NC1=CC(c2ccc(Cl)cc2)OC1=O (centres undefined)
inactive: [5] 102 % of control | [6] 100 % of control | [7] 91 % of control

Fc1c(Cl)c(Cl)c(Cl)c(Cl)c1Cl
inactive: dose: 100.0 mg/kg/injection, schedule: Q01DX009 (ip), vehicle: saline sonified 110 % of control | [8] 96 % of control | dose: 200.0 mg/kg/injection, schedule: Q01DX009 (ip), vehicle: saline sonified 100 % of control | [9] 97 % of control | dose: 400.0 mg/kg/injection, schedule: Q01DX009 (ip), vehicle: saline sonified 95 % of control | [10] 96 % of control

CN(c1ccccc1)c1cc(=O)[nH]c(=O)[nH]1
inactive: [14] 95 % of control | dose: 200.0 mg/kg/injection, schedule: Q01DX001 (ip), vehicle: Klucel (hydroxypropylcellulose) (HPC) 104 % of control | dose: 400.0 mg/kg/injection, schedule: Q01DX001 (ip), vehicle: Klucel (hydroxypropylcellulose) (HPC) 99 % of control

CCOC(=O)C(C)C(O)(c1ccccc1)c1ccccc1 (centres undefined)
inactive: [15] 90 % of control | [16] 97 % of control | [17] 106 % of control

Cc1cc(Cl)c(OC(=O)Nc2ccccc2C(F)(F)F)cc1C
inactive: [15] 107 % of control | [16] 107 % of control | [17] 98 % of control

C[CH2][Sn](=[S])[S][Sn](=[S])[CH2]C
inactive: [1] 102 % of control | [2] 94 % of control | [4] 97 % of control

Nc1ccc(OCCNC(=O)Nc2ccc(S(=O)(=O)F)cc2)c(Cl)c1
inactive: dose: 75.0 mg/kg/injection, schedule: Q01DX001 (ip), vehicle: other 96 % of control | dose: 150.0 mg/kg/injection, schedule: Q01DX001 (ip), vehicle: other 105 % of control | dose: 300.0 mg/kg/injection, schedule: Q01DX001 (ip), vehicle: other 98 % of control

CCc1cc2oc(C)c(C)c2c(N=Nc2ccccc2OC)c1O
inactive: dose: 100.0 mg/kg/injection, schedule: Q04DX002 (ip), vehicle: Klucel (hydroxypropylcellulose) (HPC) 105 % of control | dose: 200.0 mg/kg/injection, schedule: Q04DX002 (ip), vehicle: Klucel (hydroxypropylcellulose) (HPC) 102 % of control | dose: 400.0 mg/kg/injection, schedule: Q04DX002 (ip), vehicle: Klucel (hydroxypropylcellulose) (HPC) 102 % of control

Nc1nc(/C=C/C=C/c2ccccc2)c(CCCCc2ccccc2)c(=O)[nH]1
inactive: dose: 25.0 mg/kg/injection, schedule: Q01DX001 (ip), vehicle: Klucel (hydroxypropylcellulose) (HPC) 94 % of control | dose: 50.0 mg/kg/injection, schedule: Q01DX001 (ip), vehicle: Klucel (hydroxypropylcellulose) (HPC) 98 % of control | [14] 96 % of control

ClC1C2CC3C(C2)C13 (centres undefined)
inactive: [11] 95 % of control | [12] 95 % of control | [13] 95 % of control

NC(Cn1cc(N(CCCl)CCCl)c(=O)[nH]c1=O)C(=O)O (centres undefined)
inactive: dose: 2.5 mg/kg/injection, schedule: Q01DX009 (ip), vehicle: water 114 % of control | dose: 4.0 mg/kg/injection, schedule: Q01DX009 (ip), vehicle: saline 108 % of control | dose: 5.0 mg/kg/injection, schedule: Q01DX009 (ip), vehicle: water 122 % of control | dose: 6.0 mg/kg/injection, schedule: Q01DX009 (ip), vehicle: saline 113 % of control | dose: 8.0 mg/kg/injection, schedule: Q01DX009 (ip), vehicle: saline 103 % of control | dose: 9.0 mg/kg/injection, schedule: Q01DX009 (ip), vehicle: saline 111 % of control | dose: 14.0 mg/kg/injection, schedule: Q01DX009 (ip), vehicle: saline 120 % of control | dose: 16.0 mg/kg/injection, schedule: Q01DX009 (ip), vehicle: saline 118 % of control | dose: 19.0 mg/kg/injection, schedule: Q01DX001 (ip), vehicle: saline 97 % of control | dose: 20.0 mg/kg/injection, schedule: Q01DX001 (ip), vehicle: saline 121 % of control | dose: 30.0 mg/kg/injection, schedule: Q01DX001 (ip), vehicle: saline 115 % of control | dose: 33.0 mg/kg/injection, schedule: Q01DX009 (ip), vehicle: saline 98 % of control | dose: 37.5 mg/kg/injection, schedule: Q01DX001 (ip), vehicle: saline 114 % of control | dose: 45.0 mg/kg/injection, schedule: Q01DX009 (ip), vehicle: saline 101 % of control | dose: 75.0 mg/kg/injection, schedule: Q01DX009 (ip), vehicle: saline 103 % of control

CNc1ccc(C(=O)O)cc1I
inactive: [15] 100 % of control | [8] 94 % of control | [16] 94 % of control | [9] 103 % of control | [17] 94 % of control | [10] 96 % of control

O=C(Nc1ccccc1)C1C2C=CC(C2)C1C(=O)Nc1ccccc1 (centres undefined)
inactive: [5] 93 % of control and 103 % of control | [6] 95 % of control and 87 % of control | [7] 91 % of control

O=C(CCCCCCCC(=O)Nc1cc(C2=NCCN2)cc(C2=NCCN2)c1)Nc1cc(C2=NCCN2)cc(C2=NCCN2)c1
inactive: dose: 12.0 mg/kg/injection, schedule: Q01DX Z (ip), vehicle: carboxymethylcellulose (CMC) 105 % of control

O=C(Nc1cc([N+](=O)[O-])ccc1F)Nc1ccccc1C(F)(F)F
inactive: [8] 96 % of control | [9] 94 % of control | [10] 91 % of control

O=C(O)/C(I)=C(\I)C(=O)O
inactive: dose: 100.0 mg/kg/injection, schedule: Q04DX002 (ip), vehicle: saline 106 % of control | [3] 117 % of control
